Test results published in ChEMBL document CHEMBL1201862, “PubChem BioAssay data set” (2004).
Active and inactive are the calls of the source.

Test system: not listed separately
Assay: luciferase reporter signal suppression in cells – H4 neuroglioma cells, luminescence, dose response (AID 1990)
Assay type: functional, cell-based
Settings: not given

Compound | EC50
Cc1ccc(OCC(=O)N/N=C/c2cn(Cc3ccccc3)c3ccccc23)cc1 | 9.88 µM (active)

Target: T1, Streptokinase A (Streptococcus pyogenes serotype M1, UniProt P10520)
T1 sequence (P10520 whole entry): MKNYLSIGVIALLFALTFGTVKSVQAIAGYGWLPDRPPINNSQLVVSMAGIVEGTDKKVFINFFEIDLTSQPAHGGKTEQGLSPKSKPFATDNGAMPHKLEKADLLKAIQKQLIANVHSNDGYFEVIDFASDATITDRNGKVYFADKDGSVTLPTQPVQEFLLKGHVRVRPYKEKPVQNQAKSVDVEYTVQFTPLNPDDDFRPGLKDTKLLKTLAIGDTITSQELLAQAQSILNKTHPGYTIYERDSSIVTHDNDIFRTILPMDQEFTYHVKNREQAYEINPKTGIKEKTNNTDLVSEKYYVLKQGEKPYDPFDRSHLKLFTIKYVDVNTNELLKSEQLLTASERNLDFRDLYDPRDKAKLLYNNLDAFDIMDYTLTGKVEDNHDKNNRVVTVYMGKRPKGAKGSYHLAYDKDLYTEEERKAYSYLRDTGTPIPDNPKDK
Assay: viability-normalized secreted streptokinase activity reduction – plasminogen activation absorbance, OD405, dose response (AID 1914);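 also: secreted streptokinase activity via plasminogen activation per viability signal from cell pellet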
Assay type: functional, Streptococcus pyogenes M1 GAS
Settings: not given

Compound | EC50
CC(C)(C)OC(=O)[C@H](Cc1ccccc1)NC(=O)c1[nH]cnc1C(=O)Nc1cccc(Cl)c1 | 38.3 µM (active)

Test system: Streptococcus sp. 'group A'
Assay: Streptococcus pyogenes SK(-)GAS viability under kanamycin – luminescence, BacTiterGlo, confirmation, counter-screen for streptokinase expression inhibitor project, dose response (AID 1900)
Assay type: functional, organism-based
Settings: not given

Compound | EC50
CC(C)(C)OC(=O)[C@H](Cc1ccccc1)NC(=O)c1[nH]cnc1C(=O)Nc1cccc(Cl)c1 | 3.64 µM (active)

Target: T2, Heat shock factor protein 1 (Mus musculus, UniProt P38532)
T2 sequence (P38532 whole entry): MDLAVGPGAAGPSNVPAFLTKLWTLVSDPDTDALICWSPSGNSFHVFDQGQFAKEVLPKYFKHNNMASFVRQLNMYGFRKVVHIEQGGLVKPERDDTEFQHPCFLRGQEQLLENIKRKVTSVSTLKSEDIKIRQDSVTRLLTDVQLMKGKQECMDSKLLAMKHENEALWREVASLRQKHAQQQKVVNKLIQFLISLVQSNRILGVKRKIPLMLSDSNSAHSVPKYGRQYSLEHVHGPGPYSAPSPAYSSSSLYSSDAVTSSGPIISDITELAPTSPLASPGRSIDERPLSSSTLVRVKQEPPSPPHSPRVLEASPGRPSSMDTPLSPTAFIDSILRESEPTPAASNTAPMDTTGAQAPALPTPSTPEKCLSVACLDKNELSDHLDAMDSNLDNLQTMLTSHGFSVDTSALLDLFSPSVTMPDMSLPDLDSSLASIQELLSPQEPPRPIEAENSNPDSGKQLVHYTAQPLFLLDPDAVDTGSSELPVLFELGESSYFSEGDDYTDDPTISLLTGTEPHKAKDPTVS
Assay: enhancement of HSF1-driven luciferase signal – cell-based, NIH3T3, luminescence, dose retest, confirmation (AID 435004);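 also: stress induced by proteasome inhibitor MG132 added 30 min after compound; luciferase reporter driven by HSF1 response element in NIH3T3 cells; actives raise luminescence as potentiators of the MG132 stress response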
Assay type: functional
Settings: not given

Compound | EC50
CC1CCCCN1C(=O)COc1ccccc1F (stereo not given) | > 260 µM (inactive)
Nc1nnc(SCC(=O)Nc2cccc3ccccc23)s1 | > 260 µM (inactive)
CN=C(S)N(Cc1ccc(Cl)cc1)Cc1cccs1 | > 260 µM (inactive)
Cc1cc(C)c(S(=O)(=O)Nc2cccc(/C=C/C(=O)O)c2)c(C)c1 | > 260 µM (inactive)
COc1cccc(/C=C2\N=C(SC)SC2=O)c1OC | 241 µM (active)
Cc1ccc(NNC(=O)c2ccno2)c(C)c1 | > 260 µM (inactive)
COC(CNC(=O)C1CCCN(S(=O)(=O)c2c(C)noc2/C=C/c2cccs2)C1)OC (stereo not given) | 110 µM (active)
N#C/C(=C\c1ccc(Cl)cc1)c1nc2ccccc2o1 | > 260 µM (inactive)
COc1ccc(OCc2nnnn2-c2ccccc2)cc1 | > 260 µM (inactive)
NC1=NC(=O)/C(=C/c2cn(Cc3ccccc3)c3ccccc23)S1 | > 260 µM (inactive)
O=C(CC1S/C(=N\CCc2ccccc2)N(/N=C/c2cccs2)C1=O)Nc1ccc(Cl)cc1 (stereo not given) | > 260 µM (inactive)
CCOC(=O)NC(=O)/C(C#N)=N/Nc1c(F)cccc1F | > 260 µM (inactive)

Target: Cytochrome P450 2D6 (Homo sapiens, UniProt P10635);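 also: CYP2D6 member of a cytochrome P450 panel assay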
Assay: not given
Settings: not given

Cytochrome P450 2D6, sequence (P10635 whole entry): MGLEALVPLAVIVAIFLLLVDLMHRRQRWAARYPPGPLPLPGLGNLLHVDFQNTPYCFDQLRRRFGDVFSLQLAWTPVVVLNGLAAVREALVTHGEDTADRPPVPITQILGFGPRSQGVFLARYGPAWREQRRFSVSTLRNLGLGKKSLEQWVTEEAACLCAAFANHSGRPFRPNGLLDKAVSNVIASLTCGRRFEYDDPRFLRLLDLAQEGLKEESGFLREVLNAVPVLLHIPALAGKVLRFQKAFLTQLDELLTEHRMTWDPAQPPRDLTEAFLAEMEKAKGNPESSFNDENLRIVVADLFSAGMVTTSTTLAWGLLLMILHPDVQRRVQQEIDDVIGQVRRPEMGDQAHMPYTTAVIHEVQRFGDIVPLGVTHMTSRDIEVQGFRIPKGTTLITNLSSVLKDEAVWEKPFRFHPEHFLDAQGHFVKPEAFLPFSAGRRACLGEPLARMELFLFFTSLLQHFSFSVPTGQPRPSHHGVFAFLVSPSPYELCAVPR

Compound | AC50
O=C(Nc1cccc(NC(=O)c2ccccc2[N+](=O)[O-])n1)c1ccccc1[N+](=O)[O-] | 20 µM (inconclusive)
O=C(c1csnn1)N1CCC2(CC1)CN(c1ccccc1)C2 | 15.8 µM (inconclusive)
Cc1ccccc1-c1nc(N2CCNCC2)c2ccccc2n1 | 20 µM (inconclusive)
CN(C)c1ncc2nc(-c3ccc(F)cc3)c(=O)n(C[C@H]3CCCO3)c2n1 | 1.26 µM (inconclusive)
COc1cccc(Cn2c(=O)c(CCc3ccccc3)nc3cnc(N4CCN(C)CC4)nc32)c1 | 20 µM (inconclusive)
CCOC(=O)c1ccc(Nc2nc(-c3cccnc3)nc3ccccc23)cc1 | 10 µM (inconclusive)
CN(C)C(=O)c1ccc(-c2nccc(N(C)Cc3ccco3)n2)cc1 | 25.1 µM (inconclusive)
Cc1ccccc1CSc1nnc(-c2cccs2)n1Cc1ccco1 | 1.12 µM (inconclusive)
C=CC[C@@H]1C=C[C@H](O/N=C(\C)CCN2CCCc3nc(C)c(C)cc32)[C@H](CO)O1 | 3.16 µM (inconclusive)
COc1ccc(CCN2/C(=N/C(=O)CCC(=O)O)SC3CS(=O)(=O)CC32)cc1 (stereo not given) | 39.8 µM (inconclusive)

Test system: Streptococcus
Assay: GAS UMAA2166 growth inhibition – luminescence, BacTiterGlo, counter-screen for streptokinase expression inhibitor project, dose response (AID 1915);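 also: potency for reduction of bacterial viability or growth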
Assay type: functional, organism-based
Settings: not given

Compound | EC50
CC(C)(C)OC(=O)[C@H](Cc1ccccc1)NC(=O)c1[nH]cnc1C(=O)Nc1cccc(Cl)c1 | 21.7 µM (active)

Test system: not listed separately
Assay: alpha-synuclein stem-loop luciferase translation blockers – H4 neuroglioma cells, luminescence, confirmation (AID 1988)
Assay type: functional, cell-based
Settings: not given

Compound | EC50
Cc1ccc(OCC(=O)N/N=C/c2cn(Cc3ccccc3)c3ccccc23)cc1 | 5.86 µM (active)

Test system: not listed separately
Assay: Trypanosoma cruzi growth suppression in host cells – NIH3T3 host cells, beta-gal luminescence, confirmation (AID 2044);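 also: intracellular parasites grown in NIH/3T3 mouse fibroblasts as host cells; luminescent beta-galactosidase reporter signal from transgenic T. cruzi replicating inside host cells; inhibitors lower the luminescence signal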
Assay type: functional, cell-based
Settings: not given

Compound | EC50
CCOC(=O)C1CCN(c2ncnc3c2c(-c2ccccc2)cn3-c2ccccc2)CC1 | 2.23 µM (active)

Target: Cytochrome P450 2C19 (Homo sapiens, UniProt P33261)
Assay: Cytochrome panel assay with activity outcomes. Panel member name: p450-cyp2c19 Compounds with AC50 equal or less than 10 uM are considered active
Assay type: functional
Settings: not given

Cytochrome P450 2C19, sequence (P33261 whole entry): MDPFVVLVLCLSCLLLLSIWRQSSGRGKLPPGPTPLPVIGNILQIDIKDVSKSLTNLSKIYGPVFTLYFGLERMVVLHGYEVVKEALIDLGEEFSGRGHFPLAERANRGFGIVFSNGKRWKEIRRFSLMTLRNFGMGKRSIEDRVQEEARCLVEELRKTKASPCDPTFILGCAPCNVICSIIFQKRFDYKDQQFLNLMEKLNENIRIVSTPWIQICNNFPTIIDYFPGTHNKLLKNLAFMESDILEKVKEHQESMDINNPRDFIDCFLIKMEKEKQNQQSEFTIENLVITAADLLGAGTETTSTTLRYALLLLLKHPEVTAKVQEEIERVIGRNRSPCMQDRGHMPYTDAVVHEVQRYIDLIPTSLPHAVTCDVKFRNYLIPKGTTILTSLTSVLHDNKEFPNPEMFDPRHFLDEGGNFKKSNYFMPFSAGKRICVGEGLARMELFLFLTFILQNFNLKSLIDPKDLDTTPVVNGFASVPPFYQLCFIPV

Compound | AC50
Cc1cc(NC(=O)c2c([N+](=O)[O-])c(C)nn2C)no1 | inconclusive

Same assay, conditions: read-out: AC50

Compound | AC50
O=C(c1csnn1)N1CCC2(CC1)CN(c1ccccc1)C2 | 39.8 µM (inconclusive)
CN(C)C(=O)c1ccc(-c2nccc(N(C)Cc3ccco3)n2)cc1 | 25.1 µM (inconclusive)

Test system: not listed separately
Assay: Luminescence Cell-Based Dose Retest to Confirm Inhibitors of Cancer Stem Cells. [Related pubchem assays (depositor defined):AID2717, AID2721]
Assay type: functional
Settings: Homo sapiens

Compound | AC50
Fc1cccc(-n2c(-c3cccs3)nc3nc4ccccc4nc32)c1 | 1.69 µM (active)
CC(C)(C)OC(=O)[C@H](Cc1ccccc1)NC(=O)c1[nH]cnc1C(=O)Nc1cccc(Cl)c1 | 3.36 µM (active)
COc1c(OC(C)=O)ccc(/C=C/c2ccc3cccc(OCc4ccccc4)c3n2)c1[N+](=O)[O-] | 1.67 µM (active)
CCOC(=O)C1CCN(c2ncnc3c2c(-c2ccccc2)cn3-c2ccccc2)CC1 | 3.11 µM (active)
CC(=O)c1ccc(-c2ccc([C@H]3[C@@H]4C=CCC[C@@]4(C)C(=O)N3Cc3ccccc3)c(F)c2)cc1 | 4.4 µM (active)
CCOC(=O)c1c(NC(NC(=O)C(C)C)C(Cl)(Cl)Cl)sc2c1CCC2 (stereo not given) | 3.39 µM (active)
COc1ccc(C(=O)Nc2cccc(/C=C/c3nc(O)c4ccccc4n3)c2)cc1 | 3.7 µM (active)
COc1ccc(N(CC(=O)Nc2cc(C)ccc2C)S(=O)(=O)c2c(C)noc2C)cc1 | 34.5 µM (active)
O=C(Nc1ccc(Nc2ccccc2)cc1)c1ccccc1 | 13.7 µM (active)

Target: FAD-linked sulfhydryl oxidase ALR (Homo sapiens, UniProt P55789)
Assay: ALR-catalysed DTT oxidation blockers – biochemical, H2O2 detection, luminescence, cherry-pick, dose response (AID 493248)
Settings: not given

FAD-linked sulfhydryl oxidase ALR, sequence (P55789 whole entry): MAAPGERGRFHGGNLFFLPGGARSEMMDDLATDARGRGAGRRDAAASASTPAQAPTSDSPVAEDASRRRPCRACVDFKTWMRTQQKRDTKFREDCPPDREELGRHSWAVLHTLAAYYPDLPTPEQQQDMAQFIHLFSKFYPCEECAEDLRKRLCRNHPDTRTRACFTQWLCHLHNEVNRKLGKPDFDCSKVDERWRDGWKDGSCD

Compound | AC50
Nc1n[nH]c(N2CCN(c3cccc(Cl)c3)CC2)n1 | 1.25 µM (active)
N#Cc1ccsc1NC(=O)CN1CCN(c2ccccc2O)CC1 | 1.46 µM (active)
Cc1ccc(Nc2c(-c3ccccc3O)nc3cnccn23)cc1 | 0.705 µM (active)
Cc1c(C)c(C)c(C(=O)c2ccc(NC(=O)c3ccccc3C(=O)O)cc2)c(C)c1C | 5.32 µM (active)
Cc1ccc(NNC(=O)c2ccno2)c(C)c1 | 3.48 µM (active)
CC1CCCCN1c1ccc(N)cc1C(N)=O (stereo not given) | 11.1 µM (active)
Cc1cc(C)nc(NNC(=O)c2ccccc2O)n1 | 5.66 µM (active)
CC(=O)N1CCN=C1SCc1cccc(C(F)(F)F)c1 | 7.34 µM (active)
Cc1ccc(Sc2ccc(S(=O)(=O)Nc3ccc(C(=O)O)cc3)cc2)cc1C | 20.7 µM (active)
O=C(c1cc2ccccc2o1)N1CCN=C1SCc1cccnc1 | 0.095 µM (active)
COc1ccc(/C=N/Nc2ccccn2)c(OC)c1OC | 0.484 µM (active)
C/C(=N\NC(=O)c1cccc(N2CCCC2=O)c1)c1ccc(N)cc1 | 1.61 µM (active)

Test system: not listed separately
Assay: cells
Assay type: functional
Settings: not given

Compound | IC50
CCOC(=O)COc1ccc2c3c(c(=O)oc2c1C)CCC3 | > 50 µM (active)
CCOCCOC(=O)COc1ccc2c(-c3ccccc3)cc(=O)oc2c1 | 1.77 µM (active)
CCOC(=O)CCNC(=O)c1ccc2nc(C3CCCCC3)oc2c1 | 23.8 µM (active)
O=C(OCc1ccc([N+](=O)[O-])cc1)c1cc2ccccc2oc1=O | 23.2 µM (active)
Cc1csc(NC(=O)c2cc([N+](=O)[O-])cc([N+](=O)[O-])c2)n1 | 13.2 µM (active)
CCOC(=O)Cn1cc(C#N)c2cccc(CC)c21 | 4.78 µM (active)
CCc1nnc(N/N=C/c2ccc(N3CCC(C)CC3)c([N+](=O)[O-])c2)n1N | 20 µM (active)
CC1C/C(=N/NC(=O)c2cccc(F)c2)c2ccc(O)cc2C1 (stereo not given) | 34.6 µM (active)

Test system: not listed separately
Assay: Luminescence Cell-Based Dose Response HTS to Identify Inhibitors of 5'UTR Stem-Loop Driven Prion Protein mRNA Translation in H4 Neuroglioblastoma Cells. [Related pubchem assays: 1827 (Project Summary), 1813 (Primary HTS)]
Assay type: functional
Settings: not given

Compound | EC50
Cc1ccc(OCC(=O)N/N=C/c2cn(Cc3ccccc3)c3ccccc23)cc1 | 13.1 µM (active)

Target: T3, Cytochrome P450 1A2 (Homo sapiens, UniProt P05177);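 also: PubChem cytochrome P450 panel assay, CYP1A2 panel member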
T3 sequence (P05177 whole entry): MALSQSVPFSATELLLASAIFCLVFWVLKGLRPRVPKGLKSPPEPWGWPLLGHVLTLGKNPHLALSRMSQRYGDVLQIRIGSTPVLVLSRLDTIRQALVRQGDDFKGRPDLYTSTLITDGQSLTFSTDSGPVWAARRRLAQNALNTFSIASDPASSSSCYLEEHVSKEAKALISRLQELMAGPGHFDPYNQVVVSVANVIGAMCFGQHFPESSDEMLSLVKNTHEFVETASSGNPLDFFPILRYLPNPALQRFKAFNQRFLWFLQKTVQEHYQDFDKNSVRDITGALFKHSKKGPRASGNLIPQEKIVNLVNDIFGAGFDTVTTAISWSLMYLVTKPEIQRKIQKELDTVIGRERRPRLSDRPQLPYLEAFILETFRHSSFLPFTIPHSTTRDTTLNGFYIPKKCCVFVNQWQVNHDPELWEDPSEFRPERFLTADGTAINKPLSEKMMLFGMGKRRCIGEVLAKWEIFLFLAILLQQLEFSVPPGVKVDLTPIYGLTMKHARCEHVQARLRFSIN
Assay: not given
Settings: not given

Compound | AC50
C[C@@H](CC(=O)O)[C@@H](N)C(=O)O | 31.6 µM (inconclusive)
Cc1cc(NC(=O)c2c([N+](=O)[O-])c(C)nn2C)no1 | 39.8 µM (inconclusive)
CCOC(=O)Nc1ccc(C(=O)NCC2CCCO2)cc1 (stereo not given) | 39.8 µM (inconclusive)
C=CCn1c(Cc2c[nH]c3ccccc23)nnc1SCC(=O)NCc1ccccc1 | 12.6 µM (inconclusive)
C(=C/c1ccccc1)/CN1CCN(CCOC(c2ccccc2)c2ccccc2)CC1 | 20 µM (inconclusive)
Cc1nn(C(C)C(=O)Nc2ccc(Cl)cn2)c(C)c1[N+](=O)[O-] (stereo not given) | 12.6 µM (inconclusive)
N#Cc1ccc(CN2CC[C@@]3(CCCN(C(=O)Oc4ccccc4)C3)C2)cc1 | 12.6 µM (inconclusive)
O=[N+]([O-])c1cc(O)c(O)c([N+](=O)[O-])c1 [3,5-DINITROCATECHOL (OR-486)] | 39.8 µM (inconclusive)

Test system: not listed separately
Assay: NIH3T3 cell viability loss – ATP luminescence, mouse fibroblasts, counter-screen, dose response (AID 2010);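 also: cells exposed to compound for about 90 hours before reading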
Assay type: functional, cell-based
Settings: not given

Compound | EC50
CCOC(=O)C1CCN(c2ncnc3c2c(-c2ccccc2)cn3-c2ccccc2)CC1 | > 60 µM (not active)
